± gives the expanded uncertainty stated by the source.
Legend:
[1] = 298.15 K; 101.33 kPa; Liquid; Vibrating tube method
[2] = xn = mol fraction of the nth substance listed; conditions: 101 kPa, Liquid, Vibrating tube method

Cc1ccccc1C [1,2-dimethylbenzene]
Conditions	mass density [kg/m3]
[1]	875.72 ± 0.13

Cc1cccc(C)c1 [1,3-dimethylbenzene]
Conditions	mass density [kg/m3]
[1]	859.86 ± 0.13

Cc1ccc(C)cc1 [1,4-dimethylbenzene]
Conditions	mass density [kg/m3]
[1]	856.67 ± 0.13

C[SiH]1O[SiH](C)O[SiH](C)O[SiH](C)O1 (configuration not stated) [2,4,6,8-tetramethyl-1,3,5,7,2,4,6,8-tetroxatetrasilocane]
Conditions	mass density [kg/m3]
[1]	992.39 ± 0.11

C[SiH]1O[SiH](C)O[SiH](C)O[SiH](C)O1 (configuration not stated) [2,4,6,8-tetramethyl-1,3,5,7,2,4,6,8-tetroxatetrasilocane] + Cc1ccc(C)cc1
mass density [kg/m3], [2]
Conditions	288.15 K	298.15 K	308.15 K
x1 = 0.0499	879.33 ± 0.13	870.42 ± 0.14	861.48 ± 0.14
x1 = 0.0999	892.03 ± 0.13	882.82 ± 0.13	873.61 ± 0.13
x1 = 0.1501	903.51 ± 0.13	893.96 ± 0.13	884.48 ± 0.13
x1 = 0.1999	913.85 ± 0.12	904.11 ± 0.13	894.33 ± 0.13
x1 = 0.25	923.25 ± 0.12	913.34 ± 0.12	903.35 ± 0.13
x1 = 0.2999	931.83 ± 0.12	921.7 ± 0.12	911.4 ± 0.12
x1 = 0.3501	939.62 ± 0.12	929.23 ± 0.12	918.8 ± 0.12
x1 = 0.4	946.73 ± 0.12	936.18 ± 0.12	925.53 ± 0.12
x1 = 0.4502	953.29 ± 0.12	942.54 ± 0.12	931.67 ± 0.12
x1 = 0.4997	959.21 ± 0.11	948.26 ± 0.12	937.19 ± 0.12
x1 = 0.5493	964.63 ± 0.11	953.54 ± 0.11	942.24 ± 0.12
x1 = 0.6001	969.79 ± 0.11	958.45 ± 0.11	947.03 ± 0.12
x1 = 0.6501	974.4 ± 0.11	962.93 ± 0.11	951.37 ± 0.11
x1 = 0.7002	978.67 ± 0.11	967.02 ± 0.11	955.31 ± 0.11
x1 = 0.7472	982.39 ± 0.11	970.62 ± 0.11	958.76 ± 0.11
x1 = 0.7998	986.27 ± 0.11	974.32 ± 0.11	962.3 ± 0.11
x1 = 0.8492	989.69 ± 0.11	977.56 ± 0.11	965.38 ± 0.11
x1 = 0.9002	992.92 ± 0.11	980.61 ± 0.11	968.28 ± 0.11

C[SiH]1O[SiH](C)O[SiH](C)O[SiH](C)O1 (configuration not stated) [2,4,6,8-tetramethyl-1,3,5,7,2,4,6,8-tetroxatetrasilocane] + Cc1cccc(C)c1
mass density [kg/m3], [2]
Conditions	288.15 K	298.15 K	308.15 K
x1 = 0.05	882 ± 0.13	873.13 ± 0.14	864.29 ± 0.14
x1 = 0.1001	894.34 ± 0.13	885.16 ± 0.13	876.06 ± 0.13
x1 = 0.15	905.42 ± 0.13	896 ± 0.13	886.6 ± 0.13
x1 = 0.1999	915.45 ± 0.12	905.8 ± 0.13	896.12 ± 0.13
x1 = 0.2498	924.55 ± 0.12	914.65 ± 0.12	904.73 ± 0.12
x1 = 0.2999	932.94 ± 0.12	922.8 ± 0.12	912.66 ± 0.12
x1 = 0.35	940.55 ± 0.12	930.19 ± 0.12	919.83 ± 0.12
x1 = 0.3995	947.41 ± 0.12	936.84 ± 0.12	926.34 ± 0.12
x1 = 0.4504	953.92 ± 0.12	943.11 ± 0.12	932.41 ± 0.12
x1 = 0.5	959.71 ± 0.11	948.69 ± 0.12	937.79 ± 0.12
x1 = 0.55	965.11 ± 0.11	953.9 ± 0.11	942.81 ± 0.12
x1 = 0.5996	970.04 ± 0.11	958.65 ± 0.11	947.34 ± 0.12
x1 = 0.65	974.69 ± 0.11	963.1 ± 0.11	951.62 ± 0.11
x1 = 0.6995	978.87 ± 0.11	967.14 ± 0.11	955.47 ± 0.11
x1 = 0.7495	982.81 ± 0.11	970.92 ± 0.11	959.07 ± 0.11
x1 = 0.7996	986.48 ± 0.11	974.42 ± 0.11	962.42 ± 0.11
x1 = 0.8498	989.84 ± 0.11	977.65 ± 0.11	965.47 ± 0.11
x1 = 0.8994	992.98 ± 0.11	980.64 ± 0.11	968.32 ± 0.11

Reference: the NIST ThermoML archive (doi:10.1021/je2009736)
